{
  "source": "patent US9308198B2",
  "about": "“Treatment, prevention, and reversal of alcohol-induced brain disease” (priority 2006, dated 2016)",
  "key": {"[1]": {"tested_on": "IGF-I receptor tyrosine kinase", "conditions": "cerebellar tissue, ethanol-exposed relative to control pups; normalized to receptor protein; not dose-dependent", "method": "(§1) Insulin or IGF-I receptor molecules were immunoprecipitated from individual 100 μg protein samples using rabbit polyclonal antibodies (1 μg/ml) and Protein A sepharose (Amersham-Pharmacia, Arlington Heights, Ill.) (Ausubel et al, (2002) Current Protocols in Molecular Biology. John Wiley & Sons New York). Receptor tyrosine kinase activity was measured in the immune precipitates using a non-isotopic assay (Chemicon International, Temecula, Calif.) according to the manufacturer's protocol with small modifications. Briefly, tyrosine phosphorylation of the biotinylated synthetic peptide substrate captured onto streptavidin-coated wells was detected with horseradish peroxidase conjugated anti-phospho-tyrosine and SuperSignal West Pico chemiluminescent substrate (Pierce Chemical Co., Rockford, Ill.). Luminescence was measured in a TopCount machine (Packard Instrument Co., Meriden, Conn.). […]\n(§2) Studies were done to characterize the degree to which ethanol-associated impairments in receptor binding were associated with reductions in insulin and IGF-I receptor tyrosine kinase activities, and insulin and IGF-I receptor protein expression. Receptor protein levels were measured by Western blotting with digital image densitometry."}, "[2]": {"tested_on": "insulin receptor tyrosine kinase", "conditions": "cerebellar tissue, ethanol-exposed relative to control pups; normalized to receptor protein; not dose-dependent", "method": "as §1, §2"}, "[3]": {"tested_on": "insulin receptors", "conditions": "pup cerebellar membrane extracts, chronic gestational ethanol exposure relative to control; not dose-dependent", "description": "(§4) Fresh frozen tissue (˜100 mg) was homogenized in 5 volumes of NP-40 lysis buffer (50 mM Tris-HCl, pH 7.5, 1% NP-40, 150 mM NaCl, 1 mM EDTA, 2 mM EGTA) containing protease inhibitors (1 mM PMSF, 0.1 mM TPCK, 1 μg/ml aprotinin, 1 μg/ml pepstatin A, 0.5 μg/ml leupeptin, 1 mM NaF, 1 mM Na4P2O7). Protein concentrations were determined using the bicinchoninic acid (BCA) assay (Pierce, Rockford, Ill.). Exploratory studies determined the amounts of protein and concentrations of radiolabeled ligand required to achieve 20% specific binding. Insulin receptor binding assays were performed using 100 μg protein. IGF-I binding assays required 25 μg protein per sample, and IGF-II receptor binding assays were optimized using 10 μg protein. […]\n(§5) All reactions were performed in 1.5 ml Eppendorff tubes, and the incubations were performed at 4° C. for 16 hours with gentle platform agitation. […] The samples were counted for 1 minute in an LKB CompuGamma CS Gamma counter. Specific binding was calculated by subtracting fmol of non-specific binding, i.e., amount bound in the presence of cold ligand, from the total fmol bound (absence of unlabeled competitive ligand). The results were analyzed and plotted using the GraphPad Prism 4 software (GraphPad Software, Inc., San Diego, Calif.)."}, "[4]": {"tested_on": "primary cerebellar neuron cultures", "experiment": "Membrane cholesterol content, primary cerebellar neuron cultures", "format": "cell-based, rat", "conditions": "for membrane cholesterol content: 10 mM for 3 hours in Locke's buffer, control and ethanol-exposed cerebellar cultures", "method": "(§3) In vitro experiments were used to examine the effects of ethanol on receptor binding and choline acetyltransferase (ChAT) and acetylcholinesterase (AChE) expression in cerebellar neurons. Primary neuronal cultures were generated with postnatal day 8 rat pup cerebellar tissue (Nikolic et al. Genes Dev. 10:816 (1996)). The cultures were maintained with Dulbecco's modified Eagle's medium (DMEM) supplemented with 5% fetal calf serum, 4 mM glutamine, 100 μM non-essential amino acid mixture (Gibco-BRL, Grand Island, N.Y.), 25 mM KCl, and 9 g/L glucose. Ethanol treatment was accomplished by placing the cultures (seeded in 6-well dishes or 96-well plates) in sealed chambers in which 50 mM ethanol was vaporized from a reservoir tray (de la Monte et al. Alcohol Clin. Exp. Res. 24:716 (2000); Banerjee et al. Alcohol Clin. Exp. Res. 22:2093 (1998)). Control cultures were identically treated but with water added to the reservoir tray. The chambers were flushed with gas containing 75% nitrogen, 20% oxygen, and 5% carbon dioxide. After 96 hours incubation at 37° C., the cells were harvested to measure insulin, IGF-I, and IGF-II receptor binding. […] To examine the effects of membrane cholesterol content on growth factor stimulated neuronal viability and function, identically treated 96-well cultures were stimulated with vehicle, 10 nM insulin, 10 nM IGF-I, or 25 nM IGF-II for 10 minutes and then analyzed for ATP content, or for 16 hours and then used to measure viability and ChAT or AChE immunoreactivity with the MICE assay (de la Monte et al., Biotechniques 26:1073 (1999)). ATP content was measured with the ATPLite assay (Packard, Meriden, Conn.). Viability was measured using the CyQuant assay (Molecular Probes, Eugene, Oreg.). Immunoreactivity was measured directly in the cultured wells using the microtiter immunocytochemical ELISA (MICE) assay (de la Monte et al., Biotechniques 26:1073 (1999))."}, "[5]": {"tested_on": "IGF-II receptors", "conditions": "pup cerebellar membrane extracts, chronic gestational ethanol exposure relative to control; not dose-dependent", "description": "as §4, §5"}, "[6]": {"tested_on": "AChE", "experiment": "AChE immunoreactivity (MICE assay)", "format": "cell-based", "conditions": "10 mM for 3 hours; control and ethanol-exposed cells", "method": "In vitro experiments were used to examine the effects of ethanol on receptor binding and choline acetyltransferase (ChAT) and acetylcholinesterase (AChE) expression in cerebellar neurons. Primary neuronal cultures were generated with postnatal day 8 rat pup cerebellar tissue (Nikolic et al. Genes Dev. 10:816 (1996)). The cultures were maintained with Dulbecco's modified Eagle's medium (DMEM) supplemented with 5% fetal calf serum, 4 mM glutamine, 100 μM non-essential amino acid mixture (Gibco-BRL, Grand Island, N.Y.), 25 mM KCl, and 9 g/L glucose. […] To examine the effects of membrane cholesterol content on growth factor stimulated neuronal viability and function, identically treated 96-well cultures were stimulated with vehicle, 10 nM insulin, 10 nM IGF-I, or 25 nM IGF-II for 10 minutes and then analyzed for ATP content, or for 16 hours and then used to measure viability and ChAT or AChE immunoreactivity with the MICE assay (de la Monte et al., Biotechniques 26:1073 (1999)). ATP content was measured with the ATPLite assay (Packard, Meriden, Conn.). Viability was measured using the CyQuant assay (Molecular Probes, Eugene, Oreg.). Immunoreactivity was measured directly in the cultured wells using the microtiter immunocytochemical ELISA (MICE) assay (de la Monte et al., Biotechniques 26:1073 (1999)). […]"}, "[7]": {"tested_on": "primary cerebellar neuron cultures", "conditions": "10 mM for 3 hours; control and ethanol-exposed cultures", "method": "as §3, with “binding. Alternatively, the cells were serum-starved for 12 hours and then stimulated with 10 nM insulin, […], 25 nM IGF-II, or vehicle for 16 hours, and RNA was harvested to measure ChAT and AChE expression. Parallel 96-well cultures stimulated with growth factors for 10 minutes were used to measure ATP, or for 16 hours to measure viability, and ChAT or AChE immunoreactivity.” for “binding.”\nThe effects of cholesterol or MβCD treatment on neuronal viability (FIGS. 19A-19C), ATP production (energy metabolism; FIGS. 19D-19F), ChAT (FIGS. […]) and AChE (FIGS. 19J-19L) immunoreactivity were examined in cells that were treated as described above and stimulated 12 hours with vehicle (control), 10 nM insulin, 10 nM IGF-I, or 25 nM IGF-II in serum-free medium. […] Viability was measured using the CyQuant assay and ATP content was measured using the ATPLite assay. […]"}},
  "data": [
    {"compound": "CCO", "note": "[ethanol]", "values": [
      {"measurement": "IGF-I receptor tyrosine kinase activity", "setting": "[1]", "result": "significantly reduced"},
      {"measurement": "insulin receptor tyrosine kinase activity", "setting": "[2]", "result": "significantly reduced"},
      {"measurement": "impairment of insulin receptor binding", "setting": "[3]", "result": "~80", "unit": "%"},
      {"measurement": "cerebellar neuron membrane cholesterol content", "setting": "[4]; in vitro exposure to 50 mM ethanol for 96 hours", "result": "significantly reduced"},
      {"measurement": "impairment of IGF-II receptor binding", "setting": "[5]", "result": "~50", "unit": "%"}
    ]},
    {"compound": "CC(C)CCC[C@@H](C)[C@H]1CC[C@H]2[C@@H]3CC=C4C[C@@H](O)CC[C@]4(C)[C@H]3CC[C@]12C", "note": "[cholesterol]", "values": [
      {"measurement": "mean levels of AChE", "setting": "[6]", "result": "significantly increased"},
      {"measurement": "mitochondrial function (ATP content)", "setting": "[7]", "result": "broadly reduced"},
      {"measurement": "neuronal viability", "setting": "[7]", "result": "broadly reduced"},
      {"measurement": "membrane cholesterol content", "setting": "[4]", "result": "significantly increased"}
    ]},
    {"compound": "Methyl-β-cyclodextrin [MβCD]", "values": [
      {"measurement": "mean levels of AChE", "setting": "[6]", "result": "significantly increased"},
      {"measurement": "mitochondrial function (ATP content)", "setting": "[7]", "result": "broadly reduced"},
      {"measurement": "neuronal viability", "setting": "[7]", "result": "broadly reduced"},
      {"measurement": "membrane cholesterol content", "setting": "[4]", "result": "significantly reduced"}
    ]}
  ]
}
